Results: patent publication US10941114B2, “Small molecule lipid II inhibitors” (University Of Maryland, Baltimore, priority 2015, dated 2021)
Structures can show the parent of a compound that is named as a salt.

system: Staphylococcus aureus; assay: Antibacterial activity assay (MIC, broth dilution); assay type: cell-based; design: S. aureus Killing / Bacterial Killing S. aureus: unit not given here; conditions: Staphylococcus aureus USA 300 strain; broth microdilution

Going from `CN(C)c1ccc(/C=C/c2cc(-c3ccc(N(C)C)cc3)cc(-c3ccc(Br)cc3)[n+]2C)cc1.[I-]` [Compound 3jc01-3, (E)-2-(4-bromophenyl)-4-(4-(dimethylamino)phenyl)-6-(4-(dimethylamino)styryl)-1-methylpyridin-1-ium iodide salt] to `CN(C)c1ccc(/C=C/c2cc(-c3ccc(I)cc3)cc(-c3ccc(Br)cc3)[n+]2C)cc1.[I-]` [Compound 3jc07-11, (E)-2-(4-bromophenyl)-6-(4-(dimethylamino)styryl)-4-(4-iodophenyl)-1-methylpyridin-1-ium iodide salt], the MIC SA USA300 rises from 1 µg/mL to 4 µg/mL (4-fold).

`CN(CCC#N)c1ccc(/C=C/c2cc(-c3ccc(F)cc3)cc(-c3ccc(Br)cc3)[n+]2C)cc1.[I-]` [Compound 2jc39-4] and `COc1ccc(-c2cc(/C=C/c3ccc(N(C)CCC#N)cc3)[n+](C)c(-c3ccc(F)cc3)c2)cc1.[I-]` [Compound 3jc07-6, (E)-2-(4-((2-cyanoethyl)(methyl)amino)styryl)-6-(4-fluorophenyl)-4-(4-methoxyphenyl)-1-methylpyridin-1-ium iodide salt] are the same in MIC SA USA300: 16 µg/mL for the first, 16 µg/mL for the second.

Going from `COc1ccc(-c2cc(/C=C/c3ccc(N(C)CCC#N)cc3)[n+](C)c(-c3ccc(Br)cc3)c2)cc1.[I-]` [Compound 3jc07-8] to `CN(CCC#N)c1ccc(/C=C/c2cc(-c3ccc(Br)cc3)cc(-c3ccc(Br)cc3)[o+]2)cc1` [Compound 3jc09-2, (E)-2,4-bis(4-bromophenyl)-6-(4-((2-cyanoethyl)(methyl)amino)styryl)pyrylium boron tetrafluoride salt], the MIC SA USA300 rises from 16 µg/mL to greater than 64 µg/mL.

With `CN(C)c1ccc(/C=C/c2cc(-c3ccccc3)cc(-c3ccc(F)cc3)[n+]2C)cc1.[I-]` [Compound 3jc07-1, (E)-2-(4-(dimethylamino)styryl)-6-(4-fluorophenyl)-1-methyl-4-phenylpyridin-1-ium iodide salt] the MIC SA USA300 was 4 µg/mL.

same assay, conditions: Staphylococcus aureus; Table 21; read-out: Staphylococcus aureus MIC

`CCCN1CCCc2cc(/C=C/c3cc(-c4ccc(Br)cc4)cc(-c4ccc(Br)cc4)[o+]3)ccc21.F[B-](F)(F)F` was tested, and the MIC was greater than 64 µg/mL.

same assay, conditions: anti-bacterial activity (MIC); strain not stated

Going from `Cc1ccc(-c2cc(/C=C/c3ccc(N(C)C)cc3)[o+]c(-c3ccc(C)c(C)c3)c2)cc1C` [(E)-2-(4-(dimethylamino)styryl)-4,6-bis(3,4-dimethylphenyl) pyrylium boron tetrafluoride salt] to `Cc1ccc(-c2cc(/C=C/c3cn(C)c4ccccc34)[o+]c(-c3ccc(C)c(C)c3)c2)cc1C` [(E)-2,4-bis(3,4-dimethylphenyl)-6-(2-(1-methyl-1H-indol-3-yl)vinyl)pyrylium boron tetrafluoride salt], the “S. aureus Killing” value falls from 2 to 1.

Compared with `CCc1ccc(-c2cc(/C=C/c3ccc(N(C)C)cc3)[o+]c(-c3ccc(CC)cc3)c2)cc1` [(E)-2-(4-(dimethylamino)styryl)-4,6-bis(4-ethylphenyl) pyryliurn boron tetrafluoride salt], `CCc1ccc(-c2cc(/C=C/C=C/c3ccc(N(C)C)cc3)[o+]c(-c3ccc(CC)cc3)c2)cc1` [2-((1E,3E)-4-(4-(dimethylamino)phenyl)buta-1,3-dien-1-yl)-4,6-bis(4-ethylphenyl) pyrylium boron tetrafluoride salt] is higher in “S. aureus Killing” value: 1 for the first, 8 for the second.

First: Cc1ccc(-c2cc(/C=C/C=C3/N(C)c4ccccc4C3(C)C)[o+]c(-c3ccc(C)cc3)c2)cc1 [drawing 117, 2,4-di-p-tolyl-6-((1E,3E)-3-(1,3,3-trimethylindolin-2-ylidene)prop-1-en-1-yl)pyrylium boron tetrafluoride salt]
Second: CN1/C(=C/C=C/c2cc(-c3ccccc3)cc(-c3ccccc3)[o+]2)C(C)(C)c2ccccc21 [drawing 116, 2,4-diphenyl~6-((1E,3E)-3-(1,3,3-trimethylindolin-2-ylidene)prop-1-en-1-yl)pyrylium boron tetrafluoride salt]
The “S. aureus Killing” value of the first is higher: 1 for the first, 0.5 for the second.

`Cn1cc(/C=C/c2cc(-c3ccc(Cl)cc3)cc(-c3ccc(Cl)cc3)[o+]2)c2ccccc21` [(E)-2,4-bis(4-chlorophenyl)-6-(2-(1-methyl-1H-indol-3-yl)vinyl)pyrylium boron tetrafluoride salt] and `Cn1cc(/C=C/c2cc(-c3ccc(Br)cc3)cc(-c3ccc(Br)cc3)[o+]2)c2ccccc21` [(E)-2,4-bis(4-bromophenyl)-6-(2-(1-methyl-1H-indol-3-yl)vinyl)pyrylium boron tetrafluoride salt] are the same in “S. aureus Killing” value: 64 for the first, 64 for the second.

First: CN(C)c1ccc(/C=C/c2cc(-c3ccc(Br)cc3)cc(-c3ccc(Br)cc3)[o+]2)cc1 [drawing 88, (E)-2,4-bis(4-bromophenyl)-6-(4-(dimethylamino)styryl)pyrylium boron tetrafluoride salt]
Second: Cc1ccc(-c2cc(/C=C/c3c[nH]c4ccccc34)[o+]c(-c3ccc(C)cc3)c2)cc1 [(E)-2-(2-(1H-indol-3-yl)vinyl)-4,6-di-p-tolylpyiylium boron tetrafluoride salt]
The “S. aureus Killing” value of the first is higher: 32 for the first, 4 for the second.

First: CC(C)(C)c1ccc(-c2cc(/C=C/c3cc4c5c(c3)CCCN5CCC4)[o+]c(-c3ccc(C(C)(C)C)cc3)c2)cc1 [(E)-2,4-bis(4-(tert-butyl)phenyl)-6-(2-(1,2,3,5,6,7-hexahydropyrido [3,2,1-ij]quinolin-9-yl)vinyl)pyrylium boron tetrafluoride salt]
Second: Clc1ccc(-c2cc(/C=C/c3cc4c5c(c3)CCCN5CCC4)[o+]c(-c3ccc(Cl)cc3)c2)cc1 [(E)-2,4-bis(4-chlorophenyl)-6-(2-(1,2,3,5,6,7-hexahydropyrido [3,2,1-ij]quinolin-9-yl)vinyl)pyrylium boron tetrafluoride salt]
The “S. aureus Killing” value of the first is higher: 32 for the first, 1 for the second.

First: C(=C\c1c[nH]c2ccccc12)/c1cc(-c2ccccc2)cc(-c2ccccc2)[o+]1 [(E)-2-(2-(1H-indol-3-yl)vinyl)-4,6-diphenylpyrylium boron tetrafluoiide salt]
Second: Cc1cc(/C=C/c2ccc(N(C)C)cc2)cc(C)[o+]1 [(E)-4-(4-(dimethylamino)styryl)-2,6-dimethvlpyrylium boron tetrafluoride salt]
The “S. aureus Killing” value of the first is lower: 1 for the first, 16 for the second.

With `Brc1ccc(-c2cc(/C=C/c3c[nH]c4ccccc34)[o+]c(-c3ccc(Br)cc3)c2)cc1` [(E)-2-(2-(1H-indol-3-yl)vinyl)-4,6-bis(4-bromophenyl) pyrylium boron tetrafluoride salt] the “S. aureus Killing” value was greater than 64.
With `CN(C)c1ccc(/C=C/C=C/c2cc(-c3ccc(Br)cc3)cc(-c3ccc(Br)cc3)[o+]2)cc1` [2,4-bis(4-bromophenyi)-6-((1E,3E)-4-(4-(dimetliylamino)phenyl)buta-1,3-dien-1-yl)pyrylium boron tetrafluoride salt] the “S. aureus Killing” value was greater than 64.
With `CCc1ccc(-c2cc(C)[o+]c(-c3ccc(CC)cc3)c2)cc1` [2,4-bis(4-ethylphenyl)-6-methylpyrylium boron tetrafluoride salt] the “S. aureus Killing” value was greater than 64.
For `Cc1cc(-c2ccccc2)cc(-c2ccccc2)[o+]1` [2-methy1-4,6-diphenylpyrylium boron tetrafluoride salt], the “S. aureus Killing” value was greater than 64.
With `COc1ccc(-c2cc(C)[o+]c(-c3ccc(OC)cc3)c2)cc1` [2,4-bis(4-methoxyphenyl)-6-methylpyrylium boron tetrafluoride salt] the “S. aureus Killing” value was greater than 64.
`Cc1ccc(-c2cc(C)[o+]c(-c3ccc(C)cc3)c2)cc1` [2-methyl-4,6-di-p-tolylpyrylium boron tetrafluoride salt] was tested, and the “S. aureus Killing” value was greater than 64.

system: Enterococcus faecalis; assay: Antibacterial activity assay (MIC, broth dilution); assay type: cell-based; conditions: Enterococcus faecalis 15951; broth microdilution

First: CN(C)c1ccc(/C=C/c2cc(-c3ccc(N(C)C)cc3)cc(-c3ccc(Br)cc3)[n+]2C)cc1.[I-] [Compound 3jc01-3, (E)-2-(4-bromophenyl)-4-(4-(dimethylamino)phenyl)-6-(4-(dimethylamino)styryl)-1-methylpyridin-1-ium iodide salt]
Second: CN(CCC#N)c1ccc(/C=C/c2cc(-c3ccc(F)cc3)cc(-c3ccc(Br)cc3)[n+]2C)cc1.[I-] [Compound 2jc39-4]
The MIC EF 15951 of the first is 16-fold lower: 1 µg/mL for the first, 16 µg/mL for the second.

same assay, conditions: Enterococcus faecalis; Table 21; read-out: Escherichia feacalis MIC

`CCCN1CCCc2cc(/C=C/c3cc(-c4ccc(Br)cc4)cc(-c4ccc(Br)cc4)[o+]3)ccc21.F[B-](F)(F)F` showed an MIC greater than 64 µg/mL.
